Series [1] concerns Bacillus anthracis. The following applies: human fibroblast IC50 vs MIC, B. anthracis.
Series [2] deals with Staphylococcus aureus. In words: microbe, parasite or virus in culture. As to conditions: for MIC: S. aureus.
Series [3] concerns HepG2. The following applies: human.
Series [4] concerns IMR90. The following applies: human.
Series [5] concerns Francisella tularensis. The series can be described thus: microbe, parasite or virus in culture. The following applies: for MIC: F. tularensis SchuS4.
Series [6] relates to Staphylococcus aureus. As to conditions: for TI: human.
The nature of another series: in vitro. As to conditions: human.
The test system of series [7] is Fadu. As to conditions: human.
In series [8] the test system is Caco-2. The following applies: human.
Series [9] has as its system Yersinia pestis. The series can be described thus: microbe, parasite or virus in culture. The following applies: for MIC: Y. pestis (FL2, PD30: KIM).
The subject of series [10] is Yersinia pestis. As to conditions: human fibroblast IC50 vs MIC, Y. pestis.
Series [11] relates to Enterococcus faecalis. In words: microbe, parasite or virus in culture.
The test system of series [12] is Escherichia coli. As to conditions: human.
For series [13], the system named is Bacillus anthracis. The series can be described thus: microbe, parasite or virus in culture.
Series [14] concerns HepG2. In words: cells. The following applies: Homo sapiens.
Series [15] relates to Escherichia coli. The series can be described thus: microbe, parasite or virus in culture.
Series [16] concerns IMR90. In words: cells. As to conditions: Homo sapiens, IMR-90.
For another series, the system named is E. coli ΔybgJ. In words: microbe, parasite or virus in culture. The following applies: Escherichia coli.
Series [17] concerns Acinetobacter baumannii. The series can be described thus: microbe, parasite or virus in culture.
Series [18] concerns Caco-2. The series can be described thus: cells. The following applies: Homo sapiens.
For series [19], the system named is Fadu. The series can be described thus: cells. The following applies: Homo sapiens.
The test system of series [20] is Pseudomonas aeruginosa. In words: microbe, parasite or virus in culture.
The subject of series [21] is Pseudomonas aeruginosa. The following applies: human.
For another series, the system named is E. coli ΔargC. The series can be described thus: microbe, parasite or virus in culture. The following applies: Escherichia coli.
In series [22] the test system is Francisella tularensis. The following applies: human fibroblast IC50 vs MIC, F. tularensis.
The test system of series [23] is Enterococcus faecalis. As to conditions: human.
The subject of series [24] is Acinetobacter baumannii. The following applies: human.
The subject of another series is S. aureus. The following applies: S. aureus mouse infection model; cited from earlier work.
The subject of series [25] is E. coli long-chromosomal-deletion mutants. The following applies: 50 μg/ml of prodrug.
Another series has as its system Salmonella typhimurium. The series can be described thus: MIC against Salmonella typhimurium. The series is classed as cell-based. As to conditions: Salmonella enterica.
Another series concerns E. coli ΔnfsA. In words: microbe, parasite or virus in culture. As to conditions: Escherichia coli.
A further series deals with MRSA. The series can be described thus: MRSA infection in C. elegans. The series is classed as in vivo.
In series [26] the test system is E. coli ΔnfsA/ΔnfnB. As to conditions: double mutant lacking both major nitroreductases vs wild type.
In another series the test system is E. coli ΔnfnB. In words: microbe, parasite or virus in culture. The following applies: Escherichia coli.
The test system of series [27] is E. coli ΔnfsA/ΔnfnB. The series can be described thus: microbe, parasite or virus in culture. As to conditions: Escherichia coli.

≈ marks a conversion by molar mass, not a printed value. Where two headings read alike, the source gives them in different places. Some results are limits rather than exact numbers.

Usually IC50 stands for the concentration at which inhibition is half-maximal. A high value points to a need for much substance. Turning to `O=C(/C=C(\O)C(F)(F)F)c1ccc(Cl)cc1` [PD30], the TI was determined as 320 in the series with Bacillus anthracis [1]; 10 in the series with HepG2 [3]; 40 in the series with IMR90 [4]; 80 with Staphylococcus aureus [6]; 10 with Fadu [7]; 32 in the series on Caco-2 [8]. Moreover, the TI with Yersinia pestis [10] is 320; in the series on Escherichia coli [12] it was 40; in the series with Pseudomonas aeruginosa [21], greater than 2; in the series on Francisella tularensis [22], 1,282; in the series with Enterococcus faecalis [23], 40; in the series with Acinetobacter baumannii [24], 20. Also, the MIC was 3.12 µg/mL (≈ 12.5 µM) in the series with Staphylococcus aureus [2]; 0.195 µg/mL (≈ 0.778 µM) in the series on Francisella tularensis [5]; 3.12 µg/mL (≈ 12.4 µM) with Staphylococcus aureus [6] (S. aureus); 0.78 µg/mL (≈ 3.11 µM) against Yersinia pestis [9]; 6.25 µg/mL (≈ 24.9 µM) against Enterococcus faecalis [11]; 0.78 µg/mL (≈ 3.11 µM) with Bacillus anthracis [13]. The MIC with Escherichia coli [15] (read-out: MIC Against E. coli) is 6.25 µg/mL (≈ 24.9 µM); in the series with E. coli ΔybgJ, 100 µg/mL (≈ 399 µM); in the series on Acinetobacter baumannii [17], 12.5 µg/mL (≈ 49.9 µM); against Pseudomonas aeruginosa [20], greater than 50 µg/mL; in the series with E. coli ΔargC, 50 µg/mL (≈ 200 µM). In addition, the MBC against Francisella tularensis [5] was 0.78 to 1.5 µg/mL (≈ 3.11 to 5.99 µM); in the series with Yersinia pestis [9], 3.12 to 6.25 µg/mL (≈ 12.4 to 24.9 µM); in the series with Bacillus anthracis [13], greater than 50 µg/mL. Besides, the concentration for half-maximal inhibition (IC50) in “in vitro” amounted to 250 µg/mL (≈ 998 µM); in the series on HepG2 [14], 62.5 µg/mL (≈ 249 µM); with IMR90 [16], 250 µg/mL (≈ 998 µM); with Caco-2 [18], 200 µg/mL (≈ 798 µM); in the series with Fadu [19], 62.5 µg/mL (≈ 249 µM). In the series with Sheep's red blood cells, the Hemolytic activity result is “no hemolytic activity”.

Regarding `COc1ccccc1NC(=O)Nc1ccc2ccccc2c1` [INF271], the efficacy result with S. aureus is given as “shows efficacy in a S. aureus mouse infection model”.

`Oc1c(Br)cc(Br)c2cccnc12` [FL2]: the TI came out at 67 in the series on Bacillus anthracis [1]; 42 with HepG2 [3]; 67 with IMR90 [4]; 21 in the series on Fadu [7]; 67 in the series with Yersinia pestis [10]; 67 with Escherichia coli [12]. Besides, the TI is given as greater than 2 in the series with Pseudomonas aeruginosa [21], 1,031 in the series on Francisella tularensis [22] and 16 with Acinetobacter baumannii [24]. Moreover, the MIC is no more than 1.5 µg/mL against Staphylococcus aureus [2]; 0.097 µg/mL (≈ 0.32 µM) against Francisella tularensis [5]; 1.5 µg/mL (≈ 4.95 µM) against Yersinia pestis [9]; 3.25 µg/mL (≈ 10.7 µM) with Enterococcus faecalis [11]; 1.5 µg/mL (≈ 4.95 µM) in the series with Bacillus anthracis [13]; 1.5 µg/mL (≈ 4.95 µM) in the series with Escherichia coli [15] (read-out: MIC Against E. coli). Also, the MIC against Acinetobacter baumannii [17] is 6.25 µg/mL (≈ 20.6 µM); in the series with Pseudomonas aeruginosa [20], greater than 50 µg/mL. Besides, the MBC in the series on Francisella tularensis [5] was 1.5 to 3.12 µg/mL (≈ 4.95 to 10.3 µM); against Yersinia pestis [9], 12.5 to 25 µg/mL (≈ 41.3 to 82.5 µM); against Bacillus anthracis [13], greater than 50 µg/mL; in the series on Escherichia coli [15], 3 µg/mL (≈ 9.9 µM). Moreover, the IC50 is 100 µg/mL (≈ 330 µM) in the series “in vitro”, 62.5 µg/mL (≈ 206 µM) in the series on HepG2 [14], 100 µg/mL (≈ 330 µM) with IMR90 [16] and 31.2 µg/mL (≈ 103 µM) in the series with Fadu [19]. Also, the “Resistance (growth in presence of prodrug)” value in [25] is listed as “observed in a large number of deletions”.

Turning to `O=[N+]([O-])c1ccc(/C=[N+](\[O-])CCO)o1` [FL1], the MIC was 5 µg/mL (≈ 25 µM) against Salmonella typhimurium; 1.56 µg/mL (≈ 7.79 µM) against Staphylococcus aureus [2]; 2.5 µg/mL (≈ 12.5 µM) in the series with E. coli ΔnfsA; no more than 0.78 µg/mL in the series with Yersinia pestis [9]; 3.12 µg/mL (≈ 15.6 µM) in the series with Enterococcus faecalis [11]; 0.35 µg/mL (≈ 1.75 µM) against Bacillus anthracis [13]. For the same compound, the MIC came to 0.16 µg/mL (≈ 0.799 µM) in the series with E. coli ΔnfnB; 12.5 µg/mL (≈ 62.5 µM) against E. coli ΔnfsA/ΔnfnB [27]; 0.78 µg/mL (≈ 3.9 µM) with Escherichia coli [15]; 0.78 µg/mL (≈ 3.9 µM) in the series with Escherichia coli [15] (read-out: MIC Against E. coli); 12.5 µg/mL (≈ 62.5 µM) in the series on Acinetobacter baumannii [17]; 25 µg/mL (≈ 125 µM) against Pseudomonas aeruginosa [20]. Besides, the MBC amounted to 3.25 µg/mL (≈ 16.2 µM) with Staphylococcus aureus [2], 0.78 µg/mL (≈ 3.9 µM) with Bacillus anthracis [13] and 0.78 µg/mL (≈ 3.9 µM) with Escherichia coli [15]. For the same compound, the TI was 40 in the series on HepG2 [3]; 320 with IMR90 [4]; 160 in the series with Staphylococcus aureus [6]; 80 in the series with Fadu [7]; 256 in the series with Caco-2 [8]; “≧320” with Yersinia pestis [10]. The TI with Escherichia coli [12] was 320; in the series on Pseudomonas aeruginosa [21], 10; in the series with Enterococcus faecalis [23], 80; in the series on Acinetobacter baumannii [24], 20. In addition, the IC50 came to 250 µg/mL (≈ 1250 µM) in the series “in vitro”; 31.2 µg/mL (≈ 156 µM) in the series on HepG2 [14]; 250 µg/mL (≈ 1250 µM) in the series with IMR90 [16]; 200 µg/mL (≈ 999 µM) with Caco-2 [18]; 62.5 µg/mL (≈ 312 µM) with Fadu [19]. In addition, the in vivo efficacy entry in the series with MRSA was “in vivo efficacy against a MRSA infection in C. elegans”. In the series with Sheep's red blood cells, the Hemolytic activity result is recorded as “no hemolytic activity”. In addition, in the series with E. coli ΔnfsA/ΔnfnB [26], the decrease of activity is on record as 16 fold.

These data come from patent US20140200241A1, “PRODRUGS FOR TREATING MICROBIAL INFECTIONS” (Northeastern University, priority 2011, published 2014).
